# Source: patent US20210130308A1, “MODULATORS OF EUKARYOTIC INITIATION FACTOR 2” (Denali Therapeutics Inc., priority 2018, published 2021)
# System: ATF4 translation (ISR pathway activation)
# Assay: ATF4 Nano Luciferase reporter integrated stress response (ISR) assay in H4 ATF4-NLuc (clone 17) cells
# Format: cell-based, human
# Settings: Homo sapiens, 0.5 h; H4 ATF4-NLuc (clone 17) cells; compounds 30 minutes at 37 degree Celsius, then 50 um sodium arsenite for 6 additional hours; luminescence readout; read-out: IC50
# Procedure, shortened: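 H4 cells stably carrying an ATF4 5′-UTR (+1 to +364)–NanoLuc fusion reporter (clone 17), in DMEM + 10% FBS, preincubated with compound 30 min at 37 °C. ISR then induced with 50 um sodium arsenite for 6 h; inhibition measured as NanoLuc luminescence, expressed as IC50.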
row,Compound,IC50 [µM]
1,"O=C(COc1ccc(Cl)c(F)c1)NC1CCN(c2ccnc(C3CC(OC(F)(F)F)C3)n2)CC1 [58 (cis isomer), 2-(4-chloro-3-fluorophenoxy)-N-(1-(2-(3-cis-(trifluoromethoxy)cyclobutyl)pyrimidin-4-yl)piperidin-4-yl)acetamide]",< 1
2,"CC1(OCC(=O)NC23CC(NC(=O)COc4ccc(Cl)cc4)(C2)C3)CC(C#N)C1 (stereo not drawn) [Example 8, 2-(4-chlorophenoxy)-N-(3-(2-(3-cyano-1-methylcyclobutoxy)acetamido)bicyclo[1.1.1]pentan-1-yl)acetamide]",1 to 10
3,"N#CC1CC(OCC(=O)N2CC3(CC(NC(=O)COc4ccc(Cl)c(F)c4)C3)C2)C1 (stereo not drawn) [Example 20, 2-(4-chloro-3-fluoro-phenoxy)-N-[2-[2-(3-cyanocyclobutoxy)acetyl]-2-azaspiro[3.3]heptan-6-yl]acetamide]",< 1
